The target in test [1] is T1, Cysteinyl leukotriene receptor 1 (Cavia porcellus, UniProt Q2NNR5).
T1 sequence (Q2NNR5 whole entry): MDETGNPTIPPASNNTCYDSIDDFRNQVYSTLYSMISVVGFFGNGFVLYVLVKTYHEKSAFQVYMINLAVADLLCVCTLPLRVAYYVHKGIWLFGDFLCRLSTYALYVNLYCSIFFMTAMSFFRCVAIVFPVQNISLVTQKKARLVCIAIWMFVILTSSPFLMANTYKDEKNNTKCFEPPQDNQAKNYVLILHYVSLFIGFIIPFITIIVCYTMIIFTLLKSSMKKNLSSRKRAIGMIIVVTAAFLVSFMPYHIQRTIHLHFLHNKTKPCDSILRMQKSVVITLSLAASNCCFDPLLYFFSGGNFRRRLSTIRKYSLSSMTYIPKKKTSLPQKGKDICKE
Description: Inhibition of [3H]LTD4 binding on guinea-pig lung membranes. The format is tissue-based, Membrane.

Test [2] has as its system Monkey. Description: Inhibition of LTD4-induced bronchoconstriction in conscious squirrel monkey. The format is functional.
In test [3] the test system is Monkey. Description: […] inhibition of peptidoleukotriene -induced reduction in dynamic compliance in conscious squirrel monkey at a dose of 0.03 mg/Kg. The format is functional.
Test [4] relates to Mus musculus. The test can be described thus: […] effect on peroximal enzyme induction (PEI) over control animals (mice) after 4 days dosing at 400 mg/Kg perorally. The format is functional.
The test system of test [5] is Mus musculus. The test can be described thus: Compound was evaluated for its effect on the liver weight in mice after 4 days dosing at 400 mg/Kg perorally. The format is functional.
The species entered for the next test is Cavia porcellus. Description: Inhibition of LTD4-induced contraction of guinea-pig tracheal chains. Format: functional, Trachea.
Test [6] has as its system Mus musculus. The test can be described thus: […] effect on the liver weight in mice after 4 days dosing at 400 mg/Kg perorally. The format is functional.
Test [7] has as its system Monkey. Description: […] inhibition of peptidoleukotriene -induced reduction in dynamic compliance in conscious squirrel monkey at a dose of 0.1 mg/Kg. The format is functional.

The structures appear in SMILES notation. Values joined by “and” are separate entries in the source; they are usually repeats but may differ in a detail not shown here. Equal entries are not always repeated.

In the case of `CC(C)(O)c1ccccc1CC[C@@H](SCC1(CC(=O)O)CC1)c1cccc(/C=C/c2nc(-c3ccc(F)cc3)cs2)c1`, the IC50 in test [1] is 6.7 nM and 15.4 nM.
Same read-out and setting: to `CC(CC(F)(F)F)c1csc(/C=C/c2cccc([C@@H](CCc3ccccc3C(C)(C)O)SCC3(CC(=O)O)CC3)c2)n1` (some centres undefined) belongs 0.7 nM and 1 nM; to `CC(C)(O)c1ccccc1CC[C@@H](SCC1(CC(=O)O)CC1)c1cccc(/C=C/c2nc3c(s2)CCCC3)c1`, 1.5 nM.
Same read-out and setting: to `CC(C)(O)c1ccccc1CC[C@@H](SCC1(CC(=O)O)CC1)c1cccc(/C=C/c2nc(C3CC3)cs2)c1` belongs 1.7 nM and 3.3 nM; to `CC(C)c1nc(/C=C/c2cccc([C@@H](CCc3ccccc3C(C)(C)O)SCC3(CC(=O)O)CC3)c2)sc1Cl`, 170 nM and 197 nM; to `CC(C)(O)c1ccccc1CC[C@@H](SCC1(CC(=O)O)CC1)c1cccc(/C=C/c2nc3cc(Cl)ccc3s2)c1`, 7.7 nM and 6 nM.
On the same count and under the same terms, the figure for `CC(C)(O)c1ccccc1CC[C@@H](SCC1(CC(=O)O)CC1)c1cccc(/C=C/c2nc(C3CCCCC3)cs2)c1` is 2.1 nM; for `CC(C)(O)c1ccccc1CC[C@@H](SCC1(CC(=O)O)CC1)c1cccc(/C=C/c2nc(CSc3ccccc3)cs2)c1` it is 42.2 nM.
With `COc1ccc(-c2csc(/C=C/c3cccc([C@@H](CCc4ccccc4C(C)(C)O)SCC4(CC(=O)O)CC4)c3)n2)cc1`, in test [1], the IC50 was 98.7 nM and 138 nM.
As to `Cc1sc(/C=C/c2cccc([C@@H](CCc3ccccc3C(C)(C)O)SCC3(CC(=O)O)CC3)c2)nc1C(C)C`, the concentration for half-maximal inhibition (IC50) in test [1] is 12.8 nM and 5.2 nM.
In test [1], `CC(C)(O)c1ccccc1CC[C@@H](SCC1(CC(=O)O)CC1)c1cccc(/C=C/c2nc3ccccc3s2)c1` returned an IC50 of 16.8 nM.
Turning to `CC(C)(O)c1ccccc1CC[C@@H](SCC1(CC(=O)O)CC1)c1cccc(/C=C/c2nc3cc(C(F)(F)F)ccc3s2)c1`, the IC50 in test [1] was 7.5 nM and 11.6 nM.
The compound `CC(C)(O)c1ccccc1CC[C@@H](SCC1(CC(=O)O)CC1)c1cccc(/C=C/c2nccs2)c1` gave an IC50 in test [1] of 381 nM.
Compound `CC(C)c1csc(/C=C/c2cccc([C@@H](CCc3ccccc3C(C)(C)O)SCC3(CC(=O)O)CC3)c2)n1` returned an RL in the test on Monkey [2] of 40%. In addition, the IC50 in test [1] amounted to 1.9 nM. In addition, the Cdyn in the test on Monkey [3] is -8%. The PEI in the test with Mus musculus [4] was determined as 62. In addition, the Weight in the test with Mus musculus [5] is recorded as 9%. In the test listed under Cavia porcellus, this compound displayed a pKb of 9.1.
Take `CC(C)(C)c1csc(/C=C/c2cccc([C@@H](CCc3ccccc3C(C)(C)O)SCC3(CC(=O)O)CC3)c2)n1`: the IC50 in test [1] was 2 nM and 3.3 nM.
Still for that read-out and setting: to `CC(C)(O)c1ccccc1CC[C@@H](SCC1(CC(=O)O)CC1)c1cccc(/C=C/c2nc(C3CCC3)cs2)c1` belongs 0.6 nM and 0.5 nM; to `CC(C)(O)c1ccccc1CC[C@@H](SCC1(CC(=O)O)CC1)c1cccc(/C=C/c2nc3cc(F)c(F)cc3s2)c1`, 0.8 nM; to `COc1ccc2nc(/C=C/c3cccc([C@@H](CCc4ccccc4C(C)(C)O)SCC4(CC(=O)O)CC4)c3)sc2c1`, 47.6 nM.
The same measure, in the same setting: the figure for `CC(C)(O)c1ccccc1CC[C@@H](SCC1(CC(=O)O)CC1)c1cccc(/C=C/c2nc(-c3ccccc3)cs2)c1` is 11 nM and 6.7 nM.
On to `CC(C)(O)c1ccccc1CC[C@@H](SCC1(CC(=O)O)CC1)c1cccc(/C=C/c2nc3cc(F)ccc3s2)c1`, for which the RL in the test with Monkey [2] was determined as 73%. The IC50 in test [1] was 3.3 nM. In addition, in the test with Monkey [3], the Cdyn amounted to 100%. In addition, the PEI in the test on Mus musculus [4] amounted to 120. Besides, in the test filed under Cavia porcellus, the pKb turned out to be 8.8. The Weight with Mus musculus [6] is 12%.
Take `CC(C)(O)c1ccccc1CC[C@@H](SCC1(CC(=O)O)CC1)c1cccc(/C=C/c2nc(C3CCCC3)cs2)c1`: the IC50 in test [1] is 1.4 nM and 0.8 nM.
Same read-out and setting: the figure for `CC(C)(O)c1ccccc1CC[C@@H](SCC1(CC(=O)O)CC1)c1cccc(/C=C/c2nc(-c3ccc(Cl)cc3)cs2)c1` is 79.3 nM and 99.7 nM; for `CC(C)(O)c1ccccc1CC[C@@H](SCC1(CC(=O)O)CC1)c1cccc(/C=C/c2nc3c(s2)CCC3)c1` it is 3 nM and 4.6 nM.
Regarding `CN(C)C(=O)CCS[C@H](SCCC(=O)O)c1cccc(/C=C/c2ccc3ccc(Cl)cc3n2)c1` [VERLUKAST], the RL in the test with Monkey [2] came to 59%. Moreover, the half-inhibitory concentration (IC50) in test [1] is 3.9 nM. The PEI in the test with Mus musculus [4] came to 65. Moreover, in the test on Monkey [7], the Cdyn is recorded as 56%. Also, the pKb in the test filed under Cavia porcellus stood at 8.9. In the test with Mus musculus [6], the Weight stood at 0%.

By IC50 is commonly meant the concentration at which inhibition is half-maximal. The term pKb denotes the Kb on a negative log10 scale, so that one unit is a factor of ten.
